Drawing on US20050282818A1, “Ubiquitin ligase inhibitors” (Rigel Pharmaceuticals, Inc., priority 2004, published 2005), this text covers IC50 for 24 compounds.

In one test the target is T1, TRAF6/Uev1A/Ubc13 (Homo sapiens, UniProt Q9Y4K3).
T1 sequence (Q9Y4K3 1-522): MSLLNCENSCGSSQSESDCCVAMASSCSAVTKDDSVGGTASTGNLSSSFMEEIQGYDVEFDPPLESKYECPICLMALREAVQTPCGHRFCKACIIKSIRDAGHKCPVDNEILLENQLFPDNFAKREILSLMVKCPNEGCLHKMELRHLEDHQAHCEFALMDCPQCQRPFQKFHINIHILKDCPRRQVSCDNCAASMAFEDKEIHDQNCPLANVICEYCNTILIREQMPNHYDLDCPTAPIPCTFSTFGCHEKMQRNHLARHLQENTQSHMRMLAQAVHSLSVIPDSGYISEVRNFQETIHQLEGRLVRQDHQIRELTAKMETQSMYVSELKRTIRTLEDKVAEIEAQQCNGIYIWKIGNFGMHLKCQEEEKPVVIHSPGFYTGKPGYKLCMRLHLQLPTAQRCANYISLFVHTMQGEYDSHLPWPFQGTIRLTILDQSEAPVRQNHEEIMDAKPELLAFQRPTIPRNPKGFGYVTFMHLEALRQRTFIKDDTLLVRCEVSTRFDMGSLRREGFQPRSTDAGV
Nature of the test: TRAF6/Uev1A/Ubc13 plate-based ubiquitin ligase assay. The class given is biochemical. The procedure, abridged: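 Ligase activity was read as luminescence from anti-Flag/HRP detection of Flag-ubiquitin bound to casein-blocked Ni-plates alongside His-ubiquitin after a 1 h room-temperature reaction. Buffer: 62.5 mM Tris pH 7.5, 6.25 mM MgCl2, 1.0 mM DTT, 2 μM ATP; E1, Uev1a/Ubc13 and TRAF6 added last to start. IC50s derived across compound concentrations.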

The next test deals with A549 cells. The test is described as follows: Cell proliferation PAD assay, A549. The class given is cell-based. As to conditions: Homo sapiens, 48 hours. The procedure, abridged: (§1)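 Plate 2,000 cells per well, then add compound after 24 h as duplicate 6.3-fold dilutions, with 10 mM master stock diluted 500-fold on transfer. Grow 48 h at 37 °C in 5% CO2, fix with formamide, stain nuclei with DAPI, and count cells by imaging.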

Another test deals with H1299 cells. The test is described as follows: Cell proliferation PAD assay, H1299. As to conditions: Homo sapiens, 48 hours. It is filed as cell-based. The procedure, abridged:
as §1

Where [1] appears, read: NCI-H1299, 3pt, read-out: H1299 3pt.
[2] abbreviates: NCI-H1299, 6pt, read-out: H1299 6pt.

SMILES strings stand for the structures. pIC50: −log10 of the molar value. Where two headings read alike, the source gives them in different places.

In the case of `O=[N+]([O-])c1ccc(N2CCN(c3ccccc3)CC2)c2nonc12` [compound 143, 4-nitro-7-(4-phenylpiperazin-1-yl)-2,1,3-benzoxadiazole], the pIC50 against TRAF6/Uev1A/Ubc13 is not above 4.70; in the test on A549 cells (3pt, read-out: A549 3pt), not above 4.70; in the test with H1299 cells (setting [1]), not above 4.70.
Regarding `O=[N+]([O-])c1ccc(N2CCN(c3c(Cl)cncc3Cl)CC2)c2nonc12` [compound 151, 4-[4-(3,5-dichloropyridin-4-yl)piperazin-1-yl]-7-nitro-2,1,3-benzoxadiazole], the pIC50 against TRAF6/Uev1A/Ubc13 is 4.70 to 6.00; in the test with A549 cells (3pt, read-out: A549 3pt), not above 4.70; in the test on H1299 cells (setting [1]) it was not above 4.70.
Regarding `Cc1cc(N2CCN(c3ccc([N+](=O)[O-])c4nonc34)CC2)c2ccccc2n1` [compound 152, 2-methyl-4-[4-(7-nitro-2,1,3-benzoxadiazol-4-yl)piperazin-1-yl]quinoline], the pIC50 against TRAF6/Uev1A/Ubc13 is not above 4.70; in the test with A549 cells (3pt, read-out: A549 3pt) it was 4.70 to 6.00; with H1299 cells (setting [1]) it was 4.70 to 6.00.
Turning to `Cc1ccnc(N2CCN(c3ccc([N+](=O)[O-])c4nonc34)CC2)c1` [compound 154, 4-[4-(4-methylpyridin-2-yl)piperazin-1-yl]-7-nitro-2,1,3-benzoxadiazole], the pIC50 on TRAF6/Uev1A/Ubc13 is not above 4.70; in the test with A549 cells (3pt, read-out: A549 3pt), not above 4.70; with H1299 cells (setting [1]), not above 4.70.
As for `O=[N+]([O-])c1ccc(N2CCN(c3ccc4ccccc4n3)CC2)c2nonc12` [compound 155, 2-[4-(7-nitro-2,1,3-benzoxadiazol-4-yl)piperadin-1-yl]quinoline], the pIC50 on TRAF6/Uev1A/Ubc13 was 4.70 to 6.00; with A549 cells (3pt, read-out: A549 3pt) it was not above 4.70; in the test on H1299 cells (setting [1]) it was not above 4.70.
Turning to `Cc1cccnc1N1CCN(c2ccc([N+](=O)[O-])c3nonc23)CC1` [compound 156, 4-[4-(3-methylpyridin-2-yl)piperazin-1-yl]-7-nitro-2,1,3-benzoxadiazole], the pIC50 on TRAF6/Uev1A/Ubc13 is not above 4.70; with A549 cells (3pt, read-out: A549 3pt), not above 4.70; in the test with H1299 cells (setting [1]) it was not above 4.70.
Turning to `O=c1[nH]c2ccccc2n1C1CCN(c2ccc([N+](=O)[O-])c3nonc23)CC1` [compound 160, 1-[1-(7-nitro-2,1,3-benzoxadiazol-4-yl)piperidin-4-yl]-1,3-dihydro-2H-benzimidazol-2-one], the pIC50 is not above 4.70 at TRAF6/Uev1A/Ubc13; not above 4.70 in the test with A549 cells (3pt, read-out: A549 3pt); not above 4.70 in the test on H1299 cells (setting [1]).
Take `CC1CN(c2ccc([N+](=O)[O-])c3nonc23)CC(C)O1` (stereo not shown) [compound 161, 4-(2,6-dimethylmorpholin-4-yl)-7-nitro-2,1,3-benzoxadiazole]: the pIC50 on TRAF6/Uev1A/Ubc13 is not above 4.70; in the test with A549 cells (3pt, read-out: A549 3pt), not above 4.70; in the test on H1299 cells (setting [1]) it was not above 4.70.
With `Cc1cccc(N2CCN(c3ccc([N+](=O)[O-])c4nonc34)CC2)n1` [compound 162, 4-[4-(6-methylpyridin-2-yl)piperazin-1-yl]-7-nitro-2,1,3-benzoxadiazole], the pIC50 was not above 4.70 against TRAF6/Uev1A/Ubc13; not above 4.70 in the test with A549 cells (3pt, read-out: A549 3pt); not above 4.70 in the test on H1299 cells (setting [1]).
In the case of `COc1ccc(S(=O)(=O)N2CCN(c3ncc(C(F)(F)F)cc3Cl)CC2)c2nonc12` [compound 163, 4-({4-[3-chloro-5-(trifluoromethyl)pyridin-2-yl]piperazin-1-yl}sulfonyl)-7-methoxy-2,1,3-benzoxadiazole], the pIC50 is 4.70 to 6.00 against TRAF6/Uev1A/Ubc13; not above 4.70 in the test with A549 cells (3pt, read-out: A549 3pt); not above 4.70 in the test on H1299 cells (setting [1]).
In the case of `O=S(=O)(c1ccc(F)c2nonc12)N1CCN(c2ncccc2C(F)(F)F)CC1` [compound 165, 4-fluoro-7-({4-[3-(trifluoromethyl)pyridin-2-yl]piperazin-1-yl}sulfonyl)-2,1,3-benzoxadiazole], the pIC50 against TRAF6/Uev1A/Ubc13 was not above 4.70; in the test on A549 cells (3pt, read-out: A549 3pt) it was 4.70 to 6.00; in the test with A549 cells (6pt, read-out: A549 6pt), not above 4.70; with H1299 cells (setting [1]) it was not above 4.70; in the test with H1299 cells (setting [2]), not above 4.70.
Regarding `O=S(=O)(c1ccc(N2CCN(c3ncccc3C(F)(F)F)CC2)c2nonc12)N1CCN(c2ncccc2C(F)(F)F)CC1` [compound 166, 4-{4-[3-(trifluoromethyl)pyridin-2-yl]piperazin-1-yl}-7-({4-[3-(trifluoromethyl)pyridin-2-yl]piperazin-1-yl}sulfonyl)-2,1,3-benzoxadiazole], the pIC50 at TRAF6/Uev1A/Ubc13 was 4.70 to 6.00; with A549 cells (6pt, read-out: A549 6pt) it was 4.70 to 6.00; with H1299 cells (setting [2]), not above 4.70.
For `O=S(=O)(c1ccc(Cl)c2nonc12)N1CCC(O)(c2ccc(Cl)cc2)CC1` [compound 168, 1-[(7-chloro-2,1,3-benzoxadiazol-4-yl)sulfonyl]-4-(4-chlorophenyl)piperidin-4-ol], the pIC50 was not above 4.70 at TRAF6/Uev1A/Ubc13; 4.70 to 6.00 in the test with A549 cells (3pt, read-out: A549 3pt); not above 4.70 with A549 cells (6pt, read-out: A549 6pt); 4.70 to 6.00 with H1299 cells (setting [1]); not above 4.70 with H1299 cells (setting [2]).
As for `O=S(=O)(c1ccc(Cl)c2nonc12)N1CCN(c2ccc(O)cc2)CC1` [compound 172, 4-{4-[(7-chloro-2,1,3-benzoxadiazol-4-yl)sulfonyl]piperazin-1-yl}phenol], the pIC50 against TRAF6/Uev1A/Ubc13 is not above 4.70; with A549 cells (3pt, read-out: A549 3pt), 4.70 to 6.00; in the test on A549 cells (6pt, read-out: A549 6pt), not above 4.70; in the test with H1299 cells (setting [1]), 4.70 to 6.00; in the test on H1299 cells (setting [2]) it was not above 4.70.
In the case of `O=S(=O)(c1ccc(N2CCN(c3ccc(O)cc3)CC2)c2nonc12)N1CCN(c2ccc(O)cc2)CC1` [compound 173, 4-[4-({7-[4-(4-hydroxyphenyl)piperazin-1-yl]-2,1,3-benzoxadiazol-4-yl}sulfonyl)piperazin-1-yl]phenol], the pIC50 is not above 4.70 at TRAF6/Uev1A/Ubc13; 4.70 to 6.00 with A549 cells (6pt, read-out: A549 6pt); 4.70 to 6.00 in the test with H1299 cells (setting [2]).
`COC(=O)c1ccc(NS(=O)(=O)c2ccc(Sc3cccc4cccnc34)c3nonc23)cc1` [compound 174, methyl 4-({[7-(quinolin-8-ylthio)-2,1,3-benzoxadiazol-4-yl]sulfonyl}amino)benzoate]: the pIC50 on TRAF6/Uev1A/Ubc13 is not above 4.70; in the test with A549 cells (3pt, read-out: A549 3pt), 4.70 to 6.00; in the test with A549 cells (6pt, read-out: A549 6pt), 4.70 to 6.00; with H1299 cells (setting [1]), 4.70 to 6.00; in the test on H1299 cells (setting [2]), 4.70 to 6.00.
For `N#Cc1cccnc1N1CCN(S(=O)(=O)c2ccc(Sc3cccc4cccnc34)c3nonc23)CC1` [compound 176, 2-(4-{[7-(quinolin-8-ylthio)-2,1,3-benzoxadiazol-4-yl]sulfonyl}piperazin-1-yl)nicotinonitrile], the pIC50 at TRAF6/Uev1A/Ubc13 was 4.70 to 6.00; with A549 cells (3pt, read-out: A549 3pt), not above 4.70; with A549 cells (6pt, read-out: A549 6pt) it was not above 4.70; in the test on H1299 cells (setting [1]) it was not above 4.70; in the test with H1299 cells (setting [2]), not above 4.70.
With `O=S(=O)(c1ccc(N2CCN(c3ccccc3)CC2)c2nonc12)N1CCN(c2ccccc2)CC1` [compound 187, 4-(4-phenylpiperazin-1-yl)-7-[(4-phenylpiperazin-1-yl)sulfonyl]-2,1,3-benzoxadiazole], the pIC50 on TRAF6/Uev1A/Ubc13 was 4.70 to 6.00; with A549 cells (3pt, read-out: A549 3pt), not above 4.70; in the test on H1299 cells (setting [1]), not above 4.70.
As for `CN1CCN(S(=O)(=O)c2ccc(Sc3cccc4cccnc34)c3nonc23)CC1` [compound 191, 8-({7-[(4-methylpiperazin-1-yl)sulfonyl]-2,1,3-benzoxadiazol-4-yl}thio)quinoline], the pIC50 against TRAF6/Uev1A/Ubc13 was not above 4.70; in the test with A549 cells (3pt, read-out: A549 3pt), 4.70 to 6.00; in the test on H1299 cells (setting [1]) it was 4.70 to 6.00.
On to `Nc1ccc(S(=O)(=O)Nc2ccnc(Cl)c2)c2nonc12` [compound 195, 7-amino-N-(2-chloropyridin-4-yl)-2,1,3-benzoxadiazole-4-sulfonamide], for which the pIC50 against TRAF6/Uev1A/Ubc13 is not above 4.70; in the test on A549 cells (3pt, read-out: A549 3pt), not above 4.70; with H1299 cells (setting [1]) it was not above 4.70.
On to `CC1CN(c2ccc3nonc3c2S(=O)(=O)N2CC(C)OC(C)C2)CC(C)O1` (stereo not shown) [compound 205, 5-(2,6-dimethylmorpholin-4-yl)-4-[(2,6-dimethylmorpholin-4-yl)sulfonyl]-2,1,3-benzoxadiazole], for which the pIC50 was not above 4.70 on TRAF6/Uev1A/Ubc13; not above 4.70 with A549 cells (3pt, read-out: A549 3pt); 4.70 to 6.00 in the test on H1299 cells (setting [1]).
For the compound `CC1CN(c2ccc(S(=O)(=O)N3CC(C)OC(C)C3)c3nonc23)CC(C)O1` (stereo not shown) [compound 211, 4-(2,6-dimethylmorpholin-4-yl)-7-[(2,6-dimethylmorpholin-4-yl)sulfonyl]-2,1,3-benzoxadiazole], the pIC50 against TRAF6/Uev1A/Ubc13 is not above 4.70; in the test with A549 cells (3pt, read-out: A549 3pt), not above 4.70; in the test with H1299 cells (setting [1]), not above 4.70.
Turning to `CC1CN(S(=O)(=O)c2ccc(Sc3cccc4cccnc34)c3nonc23)CC(C)O1` (stereo not shown) [compound 213, 8-({7-[(2,6-dimethylmorpholin-4-yl)sulfonyl]-2,1,3-benzoxadiazol-4-yl}thio)quinoline], the pIC50 on TRAF6/Uev1A/Ubc13 is not above 4.70; in the test on A549 cells (3pt, read-out: A549 3pt) it was 4.70 to 6.00; with H1299 cells (setting [1]), not above 4.70.
Regarding `Nc1ccc2cnn(S(=O)(=O)c3ccc(Cl)c4nonc34)c2c1` [compound 221, 1-[(7-chloro-2,1,3-benzoxadiazol-4-yl)sulfonyl]-1H-indazol-6-amine], the pIC50 against TRAF6/Uev1A/Ubc13 is not above 4.70; in the test on A549 cells (3pt, read-out: A549 3pt), not above 4.70; in the test with H1299 cells (setting [1]), not above 4.70.
